Measurements as given in patent US20050090522A1 (priority 2001, published 2005).

These compounds were tested on HIV-1 (assay: HIV-1 single-round infectious luciferase reporter virus (pseudotype) assay in HeLa CD4 CCR5 cells). Details: Human immunodeficiency virus 1, HeLa-CD4/CCR5, read-out: EC50 Group from TABLE 1, HeLa CD4 CCR5 cells, single-round infectious luciferase reporter virus.
Format: cell-based
Procedure, shortened: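 HeLa CD4 CCR5 cells (5×10^4/well, DMEM + 10% FBS) were treated with compound (final <10 μM) and infected with single-round luciferase reporter virus made in 293 cells, at MOI ~0.01. Luciferase was read 72 h post infection. EC50 came from 10-concentration percent-inhibition curves fitted to a four-parameter logistic model.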

SMILES | EC50
CCNc1cnc(-c2ncc(OC)c3c(C(=O)C(=O)N4CCN(C(=O)c5ccccc5)CC4)c[nH]c23)cn1 [Example 79, 1-benzoyl-4-[(4-methoxy-7-(2-ethylamino-pyrazin-5-yl)-6-azaindol-3-yl)-oxoacetyl]piperazine] | < 1000 nM
C[C@@H]1CN(C(=O)c2ccccc2)CCN1C(=O)C(=O)c1c[nH]c2c(-c3nccs3)nccc12 [Example 20, 1-benzoyl-3-(R)-methyl-4-[(7-(thiazol-2-yl)-6-azaindol-3-yl)oxoacetyl]piperazine] | < 1000 nM
CCC(C)c1ncc(-c2ncc(OC)c3c(C(=O)C(=O)N4CCN(C(=O)c5ccccc5)CC4)c[nH]c23)s1 (centres unmarked) [Example 91, 1-benzoyl-4-[(4-methoxy-7-(2-(2-butyl)-thiazol-5-yl)-6-azaindol-3-yl)-oxoacetyl]piperazine] | < 1000 nM
COc1cnc(-c2cnc(N3CCOCC3)cn2)c2[nH]cc(C(=O)C(=O)N3CCN(C(=O)c4ccccc4)CC3)c12 [Example 178, 1-benzoyl-4-[(4-methoxy-7-(2-(4-morpholinyl)-pyrazin-5-yl)-6-azaindol-3-yl)-oxoacetyl]piperazine] | < 1000 nM
COc1cnc(-c2cnccn2)c2[nH]cc(C(=O)C(=O)N3CCN(C(=O)OC(C)(C)C)CC3)c12 [Precursor 5t] | < 1000 nM
COc1cnc(-c2cccnc2)c2[nH]cc(C(=O)C(=O)N3CCN(C(=O)c4ccccc4)CC3)c12 [Example 25, 1-benzoyl-4-[(4-methoxy-7-(pyridin-3-yl)-6-azaindol-3-yl)-oxoacetyl]piperazine] | < 1000 nM
COc1cnc(-c2cnccn2)c2[nH]cc(C(=O)C(=O)N3CCN(C(=O)c4nc(N)n[nH]4)CC3)c12 [Example 198] | < 1000 nM
COc1cnc(-c2cccc(N)n2)c2[nH]cc(C(=O)C(=O)N3CCN(C(=O)c4ccccc4)CC3)c12 [Example 75, 1-benzoyl-4-[(4-methoxy-7-(2-aminopyridin-6-yl)-6-azaindol-3-yl)-oxoacetyl]piperazine] | < 1000 nM
CCOC(=O)c1ccc(OCc2ccn(-c3ncc(OC)c4c(C(=O)C(=O)N5CCN(C(=O)c6ccccc6)CC5)c[nH]c34)n2)cc1 [Example 285, 1-benzoyl-4-[(4-methoxy-7-(3-(4-ethoxycarbonyl-phenyl)oxymethyl-pyrazol-1-yl)-6-azaindol-3-yl)-oxoacetyl]piperazine] | < 1000 nM
C[C@@H]1CN(C(=O)c2ccccc2)CCN1C(=O)C(=O)c1c[nH]c2c(-c3cccnc3)nccc12 [Example 18, 1-benzoyl-3-(R)-methyl-4-[(7-(pyridin-3-yl)-6-azaindol-3-yl)-oxoacetyl]piperazine] | < 1000 nM
COc1cnc(-n2ccc(COC(=O)CC(C)(C)C(=O)O)n2)c2[nH]cc(C(=O)C(=O)N3CCN(C(=O)c4ccccc4)[C@H](C)C3)c12 (stereo in doubt) [Example 295, 2,2-Dimethyl-succinic acid 4-(1-{3-[2-(4-benzoyl-3-methyl-piperazin-1-yl)-2-oxo-acetyl]-4-methoxy-1H-pyrrolo[2,3-c]pyridin-7-yl}-1H-pyrazol-3-ylmethyl) ester] | < 1000 nM
O=C(C(=O)N1CCN(C(=O)c2ccccc2)CC1)c1c[nH]c2c(-c3cccc4cccnc34)nccc12 [Example 11, 1-benzoyl-4-[(7-(quinolin-8-yl)-6-azaindol-3-yl)-oxoacetyl]piperazine] | < 1000 nM
COc1cnc(-c2ccccn2)c2[nH]cc(C(=O)C(=O)N3CCN(C(=O)c4ccccc4)CC3)c12 [Example 36, 1-benzoyl-4-[(4-methoxy-7-(pyridin-2-yl)-6-azaindol-3-yl)-oxoacetyl]piperazine] | < 1000 nM
COc1cnc(-n2ccc(C(C)(C)O)n2)c2[nH]cc(C(=O)C(=O)N3CCN(C(=O)c4ccccc4)CC3)c12 [Example 247, 1-benzoyl-4-[(4-methoxy-7-(3-(1-hydroxyl-1-methylethyl)-pyrazol-1-yl)-6-azaindol-3-yl)-oxoacetyl]piperazine] | < 1000 nM
COc1cnc(-c2cnc3ccccc3n2)c2[nH]cc(C(=O)C(=O)N3CCN(C(=O)c4ccccn4)CC3)c12 [Example 186, 1-picolinoyl-4-[(4-methoxy-7-(quinoxakin-2-yl)-6-azaindol-3-yl)-oxoacetyl]piperazine] | < 1000 nM
COc1cnc(-c2cnc(NC(=O)c3ccncc3)s2)c2[nH]cc(C(=O)C(=O)N3CCN(C(=O)c4ccccc4)CC3)c12 [Example 169] | < 1000 nM
COc1cnc(-c2cc3ccccc3o2)c2[nH]cc(C(=O)C(=O)N3CCN(C(=O)c4ccccn4)CC3)c12 [Example 183, 1-picolinoyl-4-[(4-methoxy-7-(benzofuran-2-yl)-6-azaindol-3-yl)-oxoacetyl]piperazine] | < 1000 nM
COc1cnc(N(c2ccccn2)S(C)(=O)=O)c2[nH]cc(C(=O)C(=O)N3CCN(C(=O)c4ccccc4)CC3)c12 [Example 331] | < 1000 nM
C[C@@H]1CN(C(=O)c2ccccc2)CCN1C(=O)C(=O)c1c[nH]c2c(-c3ccco3)nccc12 [Example 6, 1-benzoyl-3-®-methyl-4-[(7-(furan-2-yl)-6-azaindol-3-yl)-oxoacetyl]piperazine] | < 1000 nM

Same assay, conditions: Human immunodeficiency virus 1, HeLa-CD4/CCR5, read-out: EC50 Group from Table 1, Table 2-1; HeLa CD4 CCR5 cells, single-round luciferase reporter virus

SMILES | EC50
COc1cnc(-c2cnc(O)cn2)c2[nH]cc(C(=O)C(=O)N3CCN(C(=O)c4ccccn4)[C@H](C)C3)c12 [Example 272] | < 1000 nM
COc1cnc(-n2ccc(N)n2)c2[nH]cc(C(=O)C(=O)N3CCN(C(=O)c4ccccc4)[C@H](C)C3)c12 [Example 253, (R)-1-benzoyl-2-methyl-4-[(4-methoxy-7-(3-amino-pyrazol-1-yl)-6-azaindol-3-yl)-oxoacetyl]piperazine] | < 1000 nM
COc1cnc(-n2ccc(C3CCC3)n2)c2[nH]cc(C(=O)C(=O)N3CCN(C(=O)c4ccccc4)[C@H](C)C3)c12 [Example 232, (R)-1-benzoyl-2-methyl-4-[(4-methoxy-7-(3-cycloputyl-pyrazol-1-yl)-6-azaindol-3-yl)-oxoacetyl]piperazine] | < 1000 nM
COc1cnc(-c2cnc(O)cn2)c2[nH]cc(C(=O)C(=O)N3CCN(C(=O)c4ccccc4)[C@H](C)C3)c12 [Example 271] | < 1000 nM
